Laboratory results published in patent US20240391954A1, “MC4R AGONIST PEPTIDES” (The Regents of the University of Michigan, priority 2021, published 2024).
Positions of bridges follow the written chain, without caps; N, C: chain ends. Non-standard residues stand in square brackets, D forms with d. Residues, ends and D or L forms follow the SMILES beside them. d2Nal = N[C@H](Cc1ccc2ccccc2c1)C(=O)O; hCit = NC(=O)NCCCC[C@H](N)C(=O)O; 2Pal = N[C@@H](Cc1ccccn1)C(=O)O; Cit = NC(=O)NCCC[C@H](N)C(=O)O; NMeA = CN[C@@H](C)C(=O)O; Nle = CCCC[C@H](N)C(=O)O; Aib = CC(C)(N)C(=O)O

Columns and labels:
Assay type in all cases: cell-based
[1] = target: T1, human MC3R (Homo sapiens, UniProt P41968); test: split-luciferase cAMP sensor assay, agonist mode (measurement window 1), hMC3R; conditions: for EC50: HEK-293 cells stably expressing hMC3R, read-out: MC3R cAMP EC50; for EC50 / Emax: agonist mode; for MC4R selectivity vs MC3R: MC4R versus MC3R; for Emax: % maximal activation, read-out: MC3R cAMP % max activation
T1 construct: expressed in transfected cells; host or cells: HEK-293 cells stably expressing the GScAMP22F split-luciferase cAMP sensor (parent reporter line from Promega); MC3R clone generated in-house, G418 selection
Method in brief: (§1)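 Live stable cell lines carrying receptor plus GloSensor cAMP22f split-luciferase, loaded with 4% D-luciferin in serum-free medium (~1% serum estimated during assay). Luminescence recorded during in-line peptide addition; direct agonist effect read in window 1, with 20 μM forskolin as normalization reference. EC50 from four-parameter sigmoid fit.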

[2] = target: T2, human MC4R (Homo sapiens, UniProt P32245); test: split-luciferase cAMP sensor assay, agonist mode (measurement window 1), hMC4R; conditions: agonist mode; for Emax: % maximal activation, read-out: MC4R cAMP % max activation; for EC50: HEK-293 cells stably expressing hMC4R, read-out: MC4R cAMP EC50
T2 construct: host or cells: HEK-293 cells stably expressing the GScAMP22F split-luciferase cAMP sensor and hMC4R, G418 selection
Method in brief: as §1

[3] = target: T3, human MC1R (Homo sapiens, UniProt Q01726); test: split-luciferase cAMP sensor assay, agonist mode, hMC1R; conditions: MC4R versus MC1R
T3 construct: expressed in transfected cells; host or cells: HEK-293 cells stably expressing hMC1R and the GScAMP22F cAMP sensor
Experimental: FIG. 4A-B. (A) Pharmacological properties of exemplary MC4R agonist peptides, including those with improved efficacy in the MC4R+/− mouse (CTX-1211, CTX-1227, and CTX-1228). Concentration-response agonist curves for peptides indicated at the human MC4R (red), human MC3R (blue), human MC5R (green), and human MC1R (black) were determined by a split-luciferase cAMP sensor dynamic assay in HEK-293 cells stably expressing the hMC1R, hMC3R, hMC4R, or hMC5R and the GScAMP22F cAMP sensor. Each data point represents the mean±SEM of two experiments with three replicates each per experiment. Data is normalized to the ECmax of α-MSH. (B) Same as above, for peptides representing reduced activity at the hMC1R. Inset tables indicate EC50 values for the ligand indicated for each receptor.
The assay for the determination of the cAMP response in live cells was described previously. (Yu et al., 2020, Science 368, 428-433; incorporated by reference in its entirety). Cells were seeded at a density of 20,000 cells per well using 384-well poly-D lysine-coated, clear bottom, and black-wall assay plates (Corning Inc. Corning, NJ). Cells were allowed to attach to the plates for 18 to 24 h after which growth media was removed and 20 μl of 4% D-luciferin (Promega) in CO2 independent, serum-free medium (Thermo Fisher Scientific) was added to each well. The luciferase substrate was allowed to permeate the cells for 120 min at 37° C. Intracellular cAMP levels were measured using an FDSS 7000EX Functional Drug Screening System (Hamamatsu Photonics, Hamamatsu, Japan) in the Center for Chemical Genomics at the Life Sciences Institute. This instrument allowed the in-line addition of test-peptides and receptor agonists while simultaneously acquiring the luminescence signal from live cells. Assay read steps were set as follows: baseline acquisition of 2 min, the addition of 10 μl of varying 3× concentrations of test-peptides or vehicle followed by 11 min measurement (measurement window 1), and 10 μl addition of 4× concentration of the endogenous melanocortin agonist α-MSH (Bachem, Bubendorf, Switzerland) followed by an additional 11 min response measurement (measurement window 2). The resulting final concentration of α-MSH was close to the respective receptor EC90 dose for each receptor. Intraplate concentration response curves for α-MSH and SHU-9119 (Phoenix Pharmaceuticals, Burlingame CA) were included as reference controls. A submaximal forskolin (20 μM) concentration was also included to serve as a normalization reference to account for cell number variations and differences in assay transducer efficiency between cell lines.
With this set up it was possible to evaluate the direct effect of the test-peptides on the MC3R and MC4R cell lines during measurement window 1, while the antagonist profile in the presence of EC90 α-MSH was determined on measurement window 2. For data analysis baseline luminescence (i.e. the maximum luminescence signal from the initial 0 to 2 min window) was subtracted from the maximum luminescence obtained during measurement window 1 (2 to 13 min) and measurement window 2 (13 to 24 min) to yield the test-peptide elicited responses. EC50 or IC50 potency values were determined by non-linear regression by fitting the data to a sigmoid four-parameter variable slope model using the GraphPad Prism version 8.4 software package (San Diego CA).

T2 sequence (P32245 whole entry): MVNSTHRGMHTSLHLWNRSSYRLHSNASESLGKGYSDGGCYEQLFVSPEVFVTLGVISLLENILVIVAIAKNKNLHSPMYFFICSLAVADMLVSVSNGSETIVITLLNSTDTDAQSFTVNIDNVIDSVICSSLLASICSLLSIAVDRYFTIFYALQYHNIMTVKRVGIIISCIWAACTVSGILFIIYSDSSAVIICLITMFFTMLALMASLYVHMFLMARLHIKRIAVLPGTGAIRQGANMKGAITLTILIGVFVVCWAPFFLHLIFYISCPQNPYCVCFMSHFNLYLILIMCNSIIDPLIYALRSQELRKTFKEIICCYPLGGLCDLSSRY
T1 sequence (P41968 whole entry): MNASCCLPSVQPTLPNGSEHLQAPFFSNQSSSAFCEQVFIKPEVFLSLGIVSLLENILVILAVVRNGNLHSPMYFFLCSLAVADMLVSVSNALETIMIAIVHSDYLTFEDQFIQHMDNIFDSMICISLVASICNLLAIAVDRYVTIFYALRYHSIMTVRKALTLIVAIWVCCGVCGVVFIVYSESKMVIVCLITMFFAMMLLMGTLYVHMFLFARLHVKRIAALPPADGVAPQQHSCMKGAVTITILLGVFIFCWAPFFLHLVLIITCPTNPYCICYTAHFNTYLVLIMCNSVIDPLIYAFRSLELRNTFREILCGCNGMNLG
T3 sequence (Q01726 whole entry): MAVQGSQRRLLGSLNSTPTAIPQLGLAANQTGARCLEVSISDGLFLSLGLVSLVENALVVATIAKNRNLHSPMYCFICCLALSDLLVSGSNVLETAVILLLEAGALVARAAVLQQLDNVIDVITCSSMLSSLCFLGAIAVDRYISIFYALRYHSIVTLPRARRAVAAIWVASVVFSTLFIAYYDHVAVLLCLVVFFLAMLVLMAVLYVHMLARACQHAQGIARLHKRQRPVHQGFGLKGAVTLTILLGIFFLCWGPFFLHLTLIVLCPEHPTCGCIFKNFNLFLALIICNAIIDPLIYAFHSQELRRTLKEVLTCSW

COc1ccc(C[C@H]2NC(=O)[C@H](CCCNC(=N)N)NC(=O)C(C)(C)NC(=O)[C@@H](NC(=O)[C@H](CCCNC(=N)N)NC(C)=O)CSSC[C@@H](C(N)=O)NC(=O)[C@@H](Cc3c[nH]c4ccccc34)NC(=O)[C@H](CCCNC(=N)N)NC2=O)cc1 [CTX-1297, Arg-cyclo(Cys-Aib-Arg-D-Tyr(4-OMe)-Arg-D-Trp-Cys)] (Ac-RC[Aib]R[dY](Me)R[dW]C-NH2; disulfide 2-8 (inferred))
EC50 [1]: > 10000 nM | MC4R selectivity vs MC3R [1]: >3,000 | Emax [2]: 97% | EC50 [2]: 3.3 nM | MC4R selectivity vs MC1R [3]: 0.52

CC(=O)N[C@@H](CCCNC(=N)N)C(=O)N[C@H]1CSSC[C@@H](C(N)=O)NC(=O)[C@H](Cc2ccccc2)NC(=O)[C@H](CCCNC(=N)N)NC(=O)[C@@H](Cc2ccccc2)NC(=O)[C@H](CCCCNC(N)=O)NC(=O)C(C)(C)NC1=O [CTX-1603, Arg-cyclo(Cys-Aib-homo-Cit-D-Phe-Arg-Phe-Cys)] (Ac-RC[Aib][hCit][dF]RFC-NH2; disulfide 2-8 (inferred))
EC50 [1]: > 10000 nM | MC4R selectivity vs MC3R [1]: >18 | Emax [2]: 91% | MC4R selectivity vs MC1R [3]: 2.46

CC(=O)N[C@@H](CCCNC(=N)N)C(=O)N[C@H]1CSSC[C@@H](C(N)=O)NC(=O)[C@@H](Cc2ccc3ccccc3c2)NC(=O)[C@H](CCCNC(=N)N)NC(=O)[C@@H](Cc2ccccc2)NC(=O)[C@H](CCCNC(=N)N)NC(=O)[C@@H](C)NC1=O [CTX-1264, Arg-cyclo(Cys-D-Ala-Arg-D-Phe-Arg-D-Nal(2′)-Cys)] (Ac-RC[dA]R[dF]R[d2Nal]C-NH2; disulfide 2-8 (inferred))
Emax [1]: 44% | EC50 [1]: 3.7 nM | MC4R selectivity vs MC3R [1]: 0.29 | Emax [2]: 80% | EC50 [2]: 13 nM | MC4R selectivity vs MC1R [3]: 0.14

CC(=O)N[C@@H](CCCNC(=N)N)C(=O)N[C@H]1CSSC[C@@H](C(N)=O)NC(=O)[C@@H](Cc2c[nH]c3ccccc23)NC(=O)[C@H](CCCNC(=N)N)NC(=O)[C@@H](Cc2ccccc2)NC(=O)[C@H](CCCNC(=N)N)NC(=O)[C@H](C)N(C)C1=O [CTX-1269, Arg-cyclo(Cys-NMe-Ala-Arg-D-Phe-Arg-D-Trp-Cys)] (Ac-RC[NMeA]R[dF]R[dW]C-NH2; disulfide 2-8 (inferred))
Emax [1]: 39% | MC4R selectivity vs MC3R [1]: 9.31 | Emax [2]: 92% | EC50 [2]: 13 nM | MC4R selectivity vs MC1R [3]: 2.56

N=C(N)NCCC[C@@H]1NC(=O)[C@@H](Cc2ccccc2)NC(=O)[C@H](Cc2c[nH]cn2)NC(=O)CNC(=O)CSC[C@@H](C(N)=O)NC(=O)[C@H](Cc2ccccc2)NC1=O [CTX-1653, Thioether-cyclo(Gly-His-D-Phe-Arg-Phe-Cys)] ({CH2CO}-GH[dF]RFC-NH2; thioether N-6)
EC50 [1]: > 10000 nM | MC4R selectivity vs MC3R [1]: >8 | Emax [2]: 83% | EC50 [2]: 1230 nM | MC4R selectivity vs MC1R [3]: 0.83

CC(=O)N[C@H]1CSSC[C@@H](C(N)=O)NC(=O)[C@H](Cc2c[nH]c3ccccc23)NC(=O)[C@H](CCCNC(=N)N)NC(=O)[C@@H](Cc2ccccc2)NC(=O)[C@H](CCCNC(N)=O)NC(=O)[C@@H](C)NC1=O [CTX-1628, cyclo(Cys-D-Ala-Cit-D-Phe-Arg-Trp-Cys)] (Ac-C[dA][Cit][dF]RWC-NH2; disulfide 1-7 (inferred))
Emax [1]: 45% | MC4R selectivity vs MC3R [1]: 6.37 | Emax [2]: 99% | EC50 [2]: 14 nM | MC4R selectivity vs MC1R [3]: 191

N=C(N)NCCC[C@@H]1NC(=O)CNC(=O)CSC[C@@H](C(N)=O)NC(=O)[C@H](Cc2c[nH]c3ccccc23)NC(=O)[C@H](CCCNC(=N)N)NC(=O)[C@@H](Cc2ccccc2)NC1=O [CTX-1645, Thioether-cyclo(Gly-Arg-D-Phe-Arg-Trp-Cys)] ({CH2CO}-GR[dF]RWC-NH2; thioether N-6)
Emax [1]: 97% | EC50 [1]: 68 nM | MC4R selectivity vs MC3R [1]: 42 | Emax [2]: 110% | EC50 [2]: 1.6 nM | MC4R selectivity vs MC1R [3]: 9.04

CC(=O)N[C@@H](CCCNC(=N)N)C(=O)N[C@H]1CSSC[C@@H](C(N)=O)NC(=O)[C@H](Cc2c[nH]c3ccccc23)NC(=O)[C@H](CCCNC(=N)N)NC(=O)[C@@H](Cc2ccccc2)NC(=O)[C@H](CCCNC(N)=O)NC(=O)[C@H](C)NC1=O [CTX-1287, Arg-cyclo(Cys-Ala-Cit-D-Phe-Arg-Trp-Cys)] (Ac-RCA[Cit][dF]RWC-NH2; disulfide 2-8 (inferred))
Emax [1]: 43% | MC4R selectivity vs MC3R [1]: 66 | Emax [2]: 94% | MC4R selectivity vs MC1R [3]: 281

CCCC[C@H](NC(=O)[C@H](CCCNC(=N)N)NC(C)=O)C(=O)N[C@H]1CSSC[C@@H](C(N)=O)NC(=O)[C@H](Cc2c[nH]c3ccccc23)NC(=O)[C@H](CCCNC(=N)N)NC(=O)[C@H](Cc2ccccc2)NC(=O)[C@H](CCCNC(N)=O)NC1=O [CTX-1609, Arg-Nle-cyclo(Cys-Cit-Phe-Arg-Trp-Cys)] (Ac-R[Nle]C[Cit]FRWC-NH2; disulfide 3-8 (inferred))
Emax [1]: 65% | MC4R selectivity vs MC3R [1]: 4.72 | Emax [2]: 96% | MC4R selectivity vs MC1R [3]: 4.15

N=C(N)NCCC[C@@H]1NC(=O)[C@@H](Cc2ccccc2)NC(=O)[C@H](CCCNC(N)=O)NC(=O)CNC(=O)CSC[C@@H](C(N)=O)NC(=O)[C@H](Cc2ccccc2)NC1=O [CTX-1655, Thioether-cyclo(Gly-Cit-D-Phe-Arg-Phe-Cys)] ({CH2CO}-G[Cit][dF]RFC-NH2; thioether N-6)
EC50 [1]: > 10000 nM | MC4R selectivity vs MC3R [1]: Not active | EC50 [2]: > 10000 nM | MC4R selectivity vs MC1R [3]: Not active

CCCC[C@H](NC(=O)[C@H](CCCNC(=N)N)NC(C)=O)C(=O)N[C@H]1CSSC[C@@H](C(N)=O)NC(=O)[C@H](Cc2c[nH]c3ccccc23)NC(=O)[C@H](CCCNC(=N)N)NC(=O)[C@@H](Cc2ccccc2)NC(=O)[C@H](Cc2ccccn2)NC1=O [CTX-1619, Arg-Nle-cyclo(Cys-Pal(2′)-D-Phe-Arg-Trp-Cys)] (Ac-R[Nle]C[2Pal][dF]RWC-NH2; disulfide 3-8 (inferred))
Emax [1]: 84% | MC4R selectivity vs MC3R [1]: 13 | Emax [2]: 99% | EC50 [2]: 2.6 nM | MC4R selectivity vs MC1R [3]: 86

CC(=O)N[C@@H](CCCNC(=N)N)C(=O)N[C@H]1CSSC[C@@H](C(N)=O)NC(=O)[C@H](Cc2c[nH]c3ccccc23)NC(=O)[C@H](CCCNC(=N)N)NC(=O)[C@@H](Cc2ccccc2)NC(=O)[C@H](Cc2c[nH]cn2)NC(=O)C(C)(C)NC1=O [CTX-1291, Arg-cyclo(Cys-Aib-His-D-Phe-Arg-Trp-Cys)]
Emax [1]: 91% | MC4R selectivity vs MC3R [1]: 7.99 | Emax [2]: 98% | MC4R selectivity vs MC1R [3]: 1.31

C[C@H]1NC(=O)CSC[C@@H](C(N)=O)NC(=O)[C@H](Cc2ccccc2)NC(=O)[C@H](CCCNC(=N)N)NC(=O)[C@@H](Cc2ccccc2)NC(=O)[C@H](Cc2c[nH]cn2)NC1=O [CTX-1656, Thioether-cyclo(D-Ala-His-D-Phe-Arg-Phe-Cys)] ({CH2CO}-[dA]H[dF]RFC-NH2; thioether N-6)
Emax [1]: 86% | MC4R selectivity vs MC3R [1]: 1.64 | Emax [2]: 98% | EC50 [2]: 1400 nM | MC4R selectivity vs MC1R [3]: 1
